Converted amounts (≈) assume the structure as drawn. “And” between values parts separate entries of the source, which are not always exact repeats. Identical values can stand only once.
Columns and labels:
[1] = Physico-chemical properties of decitabine (solubility, stability); assay type: physicochemical
[2] = Pharmacokinetics of decitabine in IVAP rabbit model; assay type: in vivo, rabbits
Procedure: Decitabine was administered intravenously to IVAP rabbits (n=3) at three doses: 0.75, 1.5 and 2.5 mg/kg. It was also administered at 2.5mg/kg orally and through previously implanted intestinal and vascular access ports in the portal vein (PV), upper small intestine (USI), lower small intestine (LSI) and colon (IC). All routes received the same simple formulation of raw compound dissolved in cold saline. Care was taken to insure doses were delivered immediately (less than 15 minutes) after dissolving the powder and that the liquid formulation was kept on ice up to the time of administration. Blood samples were taken simultaneously from the median auricular artery and through a port in the portal vein at predetermined time points. Plasma was separated and kept frozen at −70° C. until shipped to Xenobiotic Laboratories for analysis.
Pharmacokinetic parameters were calculated using non-compartmental models with the Winnonlin v3.1 program.

[3] = IC 2.5 mg/kg, only two successful doses, individual values
[4] = IV 0.75 mg/kg, 2 min, 0.75 mg/kg
[5] = IV 0.75 mg/kg, 15 min, 0.75 mg/kg
[6] = IV 0.75 mg/kg, 60 min, 0.75 mg/kg
[7] = IV 0.75 mg/kg, 120 min, 0.75 mg/kg
[8] = IV 0.75 mg/kg, 240 min, 0.75 mg/kg
[9] = IV 1.5 mg/kg, 15 min, 1.5 mg/kg
[10] = IV 1.5 mg/kg, 60 min, 1.5 mg/kg
[11] = IV 1.5 mg/kg, 120 min, 1.5 mg/kg
[12] = IV 1.5 mg/kg, 180 min, 1.5 mg/kg

Compound: Nc1ncn([C@H]2C[C@H](O)[C@@H](CO)O2)c(=O)n1 [decitabine, 5-aza-2′-deoxycytidine]
- moisture at equilibrium of monohydrate formed on exposure to humidity [1]: 7%
- solubility in alcohol [1]: highly soluble
- solid remains stable ([1]; 15-30° C., not exposed to humidity): 36 months
- degradation rate in aqueous environment ([1]; pH 7 and 2-8° C.): about 0.7 %/hr
- degradation rate in aqueous environment ([1]; pH 7 and 25° C.): 2.5 %/hr
- solubility ([1]; water): ~25 mg/mL (≈ 110 mM)
- hepatic first pass effect loss ((AUCIV−AUCPV/AUCIV)×100) ([2]; 2.5 mg/kg into portal vein): 32%
- Individual systemic Bioavailability ([2]; IC 2.5 mg/kg): 68.29% and 0.22%
- AUC0-inf in Portal Vein [2, 3]: 2.98 ng·h/mL and 830 ng·h/mL
- AUC0-inf in Systemic Samples [2, 3]: 2.51 ng·h/mL and 773 ng·h/mL
- CMAX ([2]; IC 2.5 mg/kg, two individual values): 2.0 ng/mL and 611 ng/mL
- concentration PV, Mean ([2]; IV 0.75 mg/kg, 2 min): 624 ng/mL
- concentration SYS, Mean ([2]; IV 0.75 mg/kg, 2 min): 628 ng/mL
- concentration PV, individual [2, 4]: 581 ng/mL and 621 ng/mL and 669 ng/mL
- concentration SYS, individual [2, 4]: 666 ng/mL and 615 ng/mL and 603 ng/mL
- concentration SYS, Mean ([2]; IV 0.75 mg/kg, 5 min): 422 ng/mL
- concentration SYS, individual ([2]; IV 0.75 mg/kg, 5 min, 0.75 mg/kg): 432 ng/mL and 415 ng/mL and 419 ng/mL
- concentration PV, Mean ([2]; IV 0.75 mg/kg, 15 min): 229 ng/mL
- concentration SYS, Mean ([2]; IV 0.75 mg/kg, 15 min): 247 ng/mL
- concentration PV, individual [2, 5]: 233 ng/mL (2×) and 220 ng/mL
- concentration SYS, individual [2, 5]: 257 ng/mL and 233 ng/mL and 250 ng/mL
- concentration SYS, Mean ([2]; IV 0.75 mg/kg, 30 min): 177 ng/mL
- concentration SYS, individual ([2]; IV 0.75 mg/kg, 30 min): 177 ng/mL
- concentration PV, Mean ([2]; IV 0.75 mg/kg, 60 min): 83 ng/mL
- concentration SYS, Mean ([2]; IV 0.75 mg/kg, 60 min): 98 ng/mL
- concentration PV, individual [2, 6]: 95.1 ng/mL and 65.8 ng/mL and 89.1 ng/mL
- concentration SYS, individual [2, 6]: 102 ng/mL (2×) and 89.1 ng/mL
- concentration PV, Mean ([2]; IV 0.75 mg/kg, 120 min): 28 ng/mL
- concentration SYS, Mean ([2]; IV 0.75 mg/kg, 120 min): 39 ng/mL
- concentration PV, individual [2, 7]: 21.1 ng/mL and 34 ng/mL
- concentration SYS, individual [2, 7]: 40.6 ng/mL and 35.2 ng/mL and 41 ng/mL
- concentration PV, Mean ([2]; IV 0.75 mg/kg, 180 min): 14 ng/mL
- concentration PV, individual ([2]; IV 0.75 mg/kg, 180 min): 13.9 ng/mL
- concentration SYS, Mean ([2]; IV 0.75 mg/kg, 180 min): 15 ng/mL
- concentration SYS, individual ([2]; IV 0.75 mg/kg, 180 min, 0.75 mg/kg): 15 ng/mL and 13.9 ng/mL and 15.7 ng/mL
- concentration PV, Mean ([2]; IV 0.75 mg/kg, 240 min): 5 ng/mL
- concentration SYS, Mean ([2]; IV 0.75 mg/kg, 240 min): 6 ng/mL
- concentration PV, individual [2, 8]: 4.87 ng/mL and 5.76 ng/mL
- concentration SYS, individual [2, 8]: 5.9 ng/mL and 6.21 ng/mL and 6.31 ng/mL
- IV AUC0-inf, individual ([2]; IV 0.75 mg/kg, 0.75 mg/kg): 327.37 ng·h/mL and 353.53 ng·h/mL and 354.68 ng·h/mL
- concentration PV, Mean ([2]; IV 1.5 mg/kg, 2 min): 1140 ng/mL
- concentration SYS, Mean ([2]; IV 1.5 mg/kg, 2 min): 1080 ng/mL
- concentration PV, individual ([2]; IV 1.5 mg/kg, 2 min, 1.5 mg/kg): 1300 ng/mL and 1130 ng/mL and 985 ng/mL
- concentration SYS, individual ([2]; IV 1.5 mg/kg, 2 min, 1.5 mg/kg): 1240 ng/mL and 919 ng/mL
- concentration PV, Mean ([2]; IV 1.5 mg/kg, 5 min): 652 ng/mL
- concentration PV, individual ([2]; IV 1.5 mg/kg, 5 min): 652 ng/mL
- concentration SYS, Mean ([2]; IV 1.5 mg/kg, 5 min): 735 ng/mL
- concentration SYS, individual ([2]; IV 1.5 mg/kg, 5 min, 1.5 mg/kg): 819 ng/mL and 676 ng/mL and 711 ng/mL
- concentration PV, Mean ([2]; IV 1.5 mg/kg, 15 min): 350 ng/mL
- concentration SYS, Mean ([2]; IV 1.5 mg/kg, 15 min): 433 ng/mL
- concentration PV, individual [2, 9]: 352 ng/mL and 301 ng/mL and 397 ng/mL
- concentration SYS, individual [2, 9]: 443 ng/mL and 404 ng/mL and 453 ng/mL
- concentration PV, Mean ([2]; IV 1.5 mg/kg, 30 min): 266 ng/mL
- concentration PV, individual ([2]; IV 1.5 mg/kg, 30 min): 266 ng/mL
- concentration SYS, Mean ([2]; IV 1.5 mg/kg, 30 min): 330 ng/mL
- concentration SYS, individual ([2]; IV 1.5 mg/kg, 30 min, 1.5 mg/kg): 355 ng/mL and 304 ng/mL
- concentration PV, Mean ([2]; IV 1.5 mg/kg, 60 min): 128 ng/mL
- concentration SYS, Mean ([2]; IV 1.5 mg/kg, 60 min): 156 ng/mL
- concentration PV, individual [2, 10]: 124 ng/mL and 119 ng/mL and 141 ng/mL
- concentration SYS, individual [2, 10]: 149 ng/mL and 148 ng/mL and 171 ng/mL
- concentration PV, Mean ([2]; IV 1.5 mg/kg, 120 min): 59 ng/mL
- concentration SYS, Mean ([2]; IV 1.5 mg/kg, 120 min): 63 ng/mL
- concentration PV, individual [2, 11]: 60 ng/mL and 57.2 ng/mL and 58.8 ng/mL
- concentration SYS, individual [2, 11]: 62.6 ng/mL and 64.9 ng/mL and 60.3 ng/mL
- concentration PV, Mean ([2]; IV 1.5 mg/kg, 180 min): 22 ng/mL
- concentration SYS, Mean ([2]; IV 1.5 mg/kg, 180 min): 24 ng/mL
- concentration PV, individual [2, 12]: 22.1 ng/mL and 21.1 ng/mL
- concentration SYS, individual [2, 12]: 23.7 ng/mL and 25.3 ng/mL and 23 ng/mL

Reference: US20040162263A1, “Pharmaceutical formulations targeting specific regions of the gastrointesinal tract” (priority 2002, published 2004)
